Data: publication PMC2751816, “Functional, Non-Clonal IgM^a-Restricted B Cell Receptor Interactions with the HIV-1 Envelope gp41 Membrane Proximal External Region” (PLoS ONE, 2009)

What was measured:
[1] = tested on: splenic B cells, BALB/c congenic (CB17) (IgH^b); assay: Flow cytometry: tetramer staining of splenic B cells from BALB/c congenic CB17 (IgH^b) mice; format: cell-based, mouse (CB17); conditions: BALB/c mice homozygous for Igh^b; Fig. 5
Procedure: (§1) N-biotinylated, linker/spacer-containing peptides used to make tetramers are detailed in Table S4 and Fig. 7A. Peptides were synthesized and purified using reverse-phase HPLC (Primm Biotechnology). To produce tetramerized forms of each peptides, 200 µM peptide and 6 µM APC-labeled streptavadin (SA) were combined at equal volumes, and mixtures were incubated at 4°C for 4 h. Unbound peptide was removed from peptide-APC complexes by centrifugal filtration using an Amicon Centriprep YM30 column (Millipore Corporation). Purified tetramer preparations were determined using the Micro BSA protein assay kit (Pierce Biotechnology).
(§2) Female C57BL/6, BALB/c, B6Igh^a, and CB17 (BALBc Igh^b) inbred mouse strains (8–12 wks of age) were purchased from Charles River Laboratories. All mice were housed in the Duke University Animal Facility in a pathogen-free environment with 12 h light/dark cycles at 20–25°C under AALAC guidelines and in accordance with all Institutional Animal Care and Use Committee and Duke University Institutional Biosafety Committee-approved animal protocols. […]
(§3) FACS staining of single cell suspensions (≥2×10^6) was conducted using pre-mixed combinations of fluorochrome-labeled Abs and APC-conjugated B cell tetramers at empirically-determined optimal concentrations. […]

[2] = tested on: splenic B cells, C57BL/6 congenic (IgH^a); assay: Flow cytometry: tetramer staining of splenic B cells from C57BL/6 congenic (IgH^a) mice; format: cell-based, mouse (B6Igh^a); conditions: C57BL/6 mice homozygous for Igh^a; Fig. 5
Procedure: as §1, §2, §3

BALB/c splenic B cells = assay: Alanine-substituted gp41 MPER mutant tetramers: binding to BALB/c splenic B cells (flow cytometry); format: cell-based, mouse (BALB/c); conditions: APC mutant tetramers 100 ng/10^6 cells, MFI; average of two experiments; Fig. 7B middle
Source text: Figure 7 Mapping of gp41 MPER residues required for high frequency interactions with IgM^a. A) List of peptides (annotated numerically according to position of substitution) used to make mutant tetramers with sequential alanine substitutions (in red) along the gp41 MPER region containing the nominal 2F5 epitope. B) Comparison of gp41 MPER residues required for binding bnAb 2F5 with those required for allotypic interactions with IgM. Shown is relative binding of mutant tetramers with either 2F5 (upper panel), naïve BALB/c total splenic B cells (middle panel), and 9G8 (lower panel). Tetramers with corresponding substituted positions in the 2F5 epitope are indicated on the x-axis, with those in blue and red representing mutated residues with >3 and >10 fold binding reductions, respectively. For measuring mutant tetramer binding to 2F5, unlabeled versions of tetramers were used in SPR analysis, as described in Materials and Methods. […]
N-biotinylated, linker/spacer-containing peptides used to make tetramers are detailed in Table S4 and Fig. 7A. […] Purified tetramer preparations were determined using the Micro BSA protein assay kit (Pierce Biotechnology).
as §3

[3] = tested on: expressed IgM^+ VH repertoire of splenic BALB/c B cells; assay: VH family usage in gp41 MPER tetramer-sorted IgM^+ B cells (5' RACE); parameters: species or system mouse (BALB/c); conditions: compared to total IgM^+ BALB/c B cells; Fisher Exact test; two sorts; Fig. 6B
Source text: For sorting of gp41 MPER tetramer-binding B cells, single cell splenic suspensions were obtained from 5–10 naïve BALB/c 8 wk females, pooled, and purified by negative depletion with CD43 MACS beads (Miltenyi Biotechnology). The resulting B cell enriched fraction was stained as described in the flow cytometry methods section and sorted into B220^+ CD19^+ gp41 MPER^+ fractions using a BDFACS Aria. Sorting gates for the gp41 MPER^+ fractions were set to include all events greater than baseline staining without tetramer. Purity of sorted populations was verified by a 1000-event post-sort step.
For 5′ RACE analysis, gp41 MPER^+ fractions (or purified, unsorted splenic B cells) were spun down and washed, immediately after sorting. DNAse-free RNA was extracted and concentrated using RNEasy Mini and Micro kits, respectively (Qiagen) and quantitated using a NanoDrop ND-1000 spectrophotometer (Fisher). cDNA was synthesized by oligo-dT priming using SuperScript III (Invitrogen) and IgM-specific 5′ RACE products were amplified with the First Choice RLM-RACE PCR kit (Ambion), using mouse HC̃-specific primers in combination with 5′ RACE primers, according to the manufacturer's instructions. PCR products were cloned into pGEM-T Easy vectors (Promega), transformed in GC5 competent cells (CLP), and transformant DNA was isolated, sequenced and analyzed in Ig Blast.

[4] = tested on: naïve splenic C57BL/6 B cells; assay: Flow cytometry: APC-labeled tetramer staining of C57BL/6 splenic B cells; format: cell-based, mouse (C57BL/6)
Procedure: as §1
FACS staining of single cell suspensions (≥2×10^6) was conducted using pre-mixed combinations of fluorochrome-labeled Abs and APC-conjugated B cell tetramers at empirically-determined optimal concentrations. All Abs were from BD unless otherwise stated. Primary antibodies used were: PerCP anti-B220, FITC anti-IgD, FITC, PE or PE-Cy7 anti-IgM, PE anti-CD5, FITC anti-CD11b, PE-Cy7 anti-CD19, FITC anti-CD21, PE-Cy7 anti-CD23 (eBiosciences), and PE-Cy7 anti-CD93 (eBiosciences). Other reagents included biotinylated Abs against dump channel markers: Thy1 (Abcam), F4/80 (Abcam), CD11c, Gr-1, TER-119, and NK-1.1, secondary staining SA-Texas Red conjugate; v-amine live/dead violet dye (Molecular Probes), and Fc block (anti-CD16/32).
Staining was conducted at 4°C in several sequential steps in FACS staining buffer (1X PBS with 2% FCS, 0.1% NaN3), washing twice between steps. Cells were first incubated with v-amine live/dead dye for 15 min, then stained with APC-labeled tetramers for 30 min (and in some experiments, cold tetramer was incubated at 10 fold molar excess for 1 h, prior to staining with APC-labeled tetramers). Cells were then stained with Fc block, followed by incubation with combinations of primary Abs, and secondary staining with SA-Texas Red, each for 30 min. Data (≥2.5×10^5 events/sample) were acquired using an LSRII flow cytometer and Cell Quest software (BD Immunocytometry systems). FACS Analysis was performed using FlowJo software (Tree Star). […]

QQEKNEQELLELDKWASLWN [gp41 MPER tetramer, (residues 659–678 of the HIV-1 envelope)]
gp41 MPER binding in congenic mice (in words) [1]: lost gp41 MPER binding | gp41 MPER binding in congenic mice (in words) [2]: exhibited gp41 MPER binding identical to BALB/c animals | gp41 MPER residues required for binding (in words) (BALB/c splenic B cells): mapped to 660Q and a 677 W, both located outside the core 2F5 epitope | VH family usage in gp41 MPER-reactive B cells (in words) [3]: most VH families were utilized at statistically comparable levels in gp41 MPER-reactive B cells, with the exception of two overutilized VH families: 36–60 and 7183 | MFI binding pattern (in words) ([4]; C57BL/6 B cells, Fig. 1A, 1C): gp41 MPER-reactive C57BL/6 B cells scattered further out across the APC channel | gp41 MPER reactivity among B cell subsets (in words) ([4]; C57BL/6 MZ and B1a B cells, Table S2): did not reveal increased levels of MPER binding by MZ and B1a B cells | percentage of tetramer-reactive B cells ([4]; total splenic B cells (CD19^+), naïve C57BL/6, APC tetramer 100 ng/10^6 splenocytes, above background without tetramer, Fig. 1A representative histogram): 0.1–0.3%
